Data published in PubChem BioAssay AID248 (DTP/NCI, 2004).
Values joined by “and” are separate entries in the source; they are usually repeats but may differ in a detail not shown here. Equal values may be shown once. Toxic doses and inconclusive results are not listed. Rule as the data show it: active = T/C of 150% or more; inactive = T/C below 125%.

System: L1210 leukemia ip in BDF1 mice, survival T/C
Test: NCI In Vivo Anticancer Drug Screen. Data for tumor model L1210 Leukemia (intraperitoneal) in B6D2F1 (BDF1) mice
Settings: endpoint: mean survival time, higher = longer survival
Method in brief: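 In this screen, tumor-bearing mice given compound are compared to those given vehicle, and their survival values are reported as a treated-to-control quotient.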

[1] = dose: 50.0 mg/kg/injection, schedule: Q04DX003 (ip), vehicle: saline
[2] = dose: 100.0 mg/kg/injection, schedule: Q01DX001 (ip), vehicle: Klucel (hydroxypropylcellulose) (HPC)
[3] = dose: 200.0 mg/kg/injection, schedule: Q01DX001 (ip), vehicle: Klucel (hydroxypropylcellulose) (HPC)
[4] = dose: 100.0 mg/kg/injection, schedule: Q01DX009 (ip), vehicle: saline with Tween-80
[5] = dose: 200.0 mg/kg/injection, schedule: Q01DX009 (ip), vehicle: saline with Tween-80
[6] = dose: 400.0 mg/kg/injection, schedule: Q01DX009 (ip), vehicle: saline with Tween-80
[7] = dose: 75.0 mg/kg/injection, schedule: Q01DX001 (ip), vehicle: saline
[8] = dose: 150.0 mg/kg/injection, schedule: Q01DX001 (ip), vehicle: saline

Measured: T/C

CCN(CC)CCn1c2ccccc2c2cnccc21
inactive: dose: 25.0 mg/kg/injection, schedule: Q04DX003 (ip), vehicle: saline 100 % of control | [1] 97 % of control

COC1OC(COS(C)(=O)=O)C(OS(C)(=O)=O)C(OC(=O)c2ccccc2)C1OC(=O)c1ccccc1 (centres undefined)
inactive: dose: 100.0 mg/kg/injection, schedule: Q04DX002 (ip), vehicle: Klucel (hydroxypropylcellulose) (HPC) 109 % of control | dose: 200.0 mg/kg/injection, schedule: Q04DX002 (ip), vehicle: Klucel (hydroxypropylcellulose) (HPC) 101 % of control | dose: 400.0 mg/kg/injection, schedule: Q04DX002 (ip), vehicle: Klucel (hydroxypropylcellulose) (HPC) 101 % of control

O=C(O)c1ccccc1C(=O)OC1CC2CCC1C2 (centres undefined)
inactive: [2] 100 % of control | [3] 94 % of control | dose: 400.0 mg/kg/injection, schedule: Q01DX001 (ip), vehicle: Klucel (hydroxypropylcellulose) (HPC) 98 % of control

COc1cccc2c1C1c3ccccc3C(O)CC1CC2O (centres undefined)
inactive: dose: 37.5 mg/kg/injection, schedule: Q01DX001 (ip), vehicle: Klucel (hydroxypropylcellulose) (HPC) 89 % of control | dose: 75.0 mg/kg/injection, schedule: Q01DX001 (ip), vehicle: Klucel (hydroxypropylcellulose) (HPC) 104 % of control | dose: 150.0 mg/kg/injection, schedule: Q01DX001 (ip), vehicle: Klucel (hydroxypropylcellulose) (HPC) 91 % of control

CN=C(NC)c1cccc(NC(=O)c2ccc(C(=O)Nc3cccc(C(=NC)NC)c3)cc2)c1
inactive: dose: 1.2 mg/kg/injection, schedule: Q01DX Z (ip), vehicle: carboxymethylcellulose (CMC) 93 % of control | dose: 2.5 mg/kg/injection, schedule: Q01DX Z (ip), vehicle: carboxymethylcellulose (CMC) 96 % of control | dose: 5.0 mg/kg/injection, schedule: Q01DX Z (ip), vehicle: carboxymethylcellulose (CMC) 93 % of control | dose: 10.0 mg/kg/injection, schedule: Q01DX Z (ip), vehicle: carboxymethylcellulose (CMC) 100 % of control

C[C@]12CCC(=O)C=C1CC[C@@H]1[C@@H]2C(=O)C[C@]2(C)C3=CC(=O)O[C@H]3C[C@@H]12
inactive: dose: 25.0 mg/kg/injection, schedule: Q01DX015 (sc), vehicle: steriod suspending solution 117 % of control | dose: 50.0 mg/kg/injection, schedule: Q01DX015 (sc), vehicle: steriod suspending solution 102 % of control | dose: 100.0 mg/kg/injection, schedule: Q01DX001 (sc), vehicle: steriod suspending solution 94 % of control | dose: 100.0 mg/kg/injection, schedule: Q01DX015 (sc), vehicle: steriod suspending solution 102 % of control | dose: 200.0 mg/kg/injection, schedule: Q01DX001 (sc), vehicle: steriod suspending solution 103 % of control | dose: 200.0 mg/kg/injection, schedule: Q01DX015 (sc), vehicle: steriod suspending solution 91 % of control | dose: 400.0 mg/kg/injection, schedule: Q01DX001 (sc), vehicle: steriod suspending solution 103 % of control | dose: 400.0 mg/kg/injection, schedule: Q01DX015 (sc), vehicle: steriod suspending solution 97 % of control | dose: 600.0 mg/kg/injection, schedule: Q01DX015 (sc), vehicle: steriod suspending solution 95 % of control

CCOC(=O)/C=C/c1c(C)[nH]c(=O)[nH]c1=O
inactive: dose: 100.0 mg/kg/injection, schedule: Q01DX001 (ip), vehicle: saline 94 % of control | dose: 150.0 mg/kg/injection, schedule: Q04DX003 (ip), vehicle: saline 102 % of control | dose: 200.0 mg/kg/injection, schedule: Q01DX001 (ip), vehicle: saline 93 % of control | dose: 300.0 mg/kg/injection, schedule: Q04DX003 (ip), vehicle: saline 96 % of control | dose: 400.0 mg/kg/injection, schedule: Q01DX001 (ip), vehicle: saline 93 % of control | dose: 600.0 mg/kg/injection, schedule: Q04DX003 (ip), vehicle: saline 103 % of control

CN(CCNC(=O)Nc1ccccc1)c1ccccc1
inactive: dose: 100.0 mg/kg/injection, schedule: Q01DX009 (ip), vehicle: Klucel (hydroxypropylcellulose) (HPC) 101 % of control | dose: 200.0 mg/kg/injection, schedule: Q01DX009 (ip), vehicle: Klucel (hydroxypropylcellulose) (HPC) 97 % of control | dose: 400.0 mg/kg/injection, schedule: Q01DX009 (ip), vehicle: Klucel (hydroxypropylcellulose) (HPC) 105 % of control

CC(=O)OC1C=C2CCCCC2(C)CC1 (centres undefined)
inactive: dose: 50.0 mg/kg/injection, schedule: Q04DX002 (ip), vehicle: saline with Tween-80 96 % of control | dose: 100.0 mg/kg/injection, schedule: Q04DX002 (ip), vehicle: saline with Tween-80 96 % of control | dose: 200.0 mg/kg/injection, schedule: Q04DX002 (ip), vehicle: saline with Tween-80 111 % of control

COc1ccc2c(c1)CCC(C)(C#N)C2=O (centres undefined)
inactive: dose: 100.0 mg/kg/injection, schedule: Q01DX009 (ip), vehicle: saline sonified 91 % of control | dose: 200.0 mg/kg/injection, schedule: Q01DX009 (ip), vehicle: saline sonified 96 % of control | dose: 400.0 mg/kg/injection, schedule: Q01DX009 (ip), vehicle: saline sonified 90 % of control

CCOC(=O)Cc1ccccc1
inactive: [4] 97 % of control | dose: 175.0 mg/kg/injection, schedule: Q04DX003 (ip), vehicle: saline with Tween-80 91 % of control | [5] 104 % of control | dose: 265.0 mg/kg/injection, schedule: Q04DX003 (ip), vehicle: saline with Tween-80 106 % of control | [6] 99 % of control

S=c1[nH]c2cc3ccccc3cc2[nH]1
inactive: [7] 98 % of control | [8] 101 % of control | dose: 300.0 mg/kg/injection, schedule: Q01DX001 (ip), vehicle: saline 92 % of control

Clc1ccc(/C=C\c2ccncc2)cc1
inactive: dose: 50.0 mg/kg/injection, schedule: Q01DX001 (ip), vehicle: carboxymethylcellulose (CMC) 102 % of control | dose: 100.0 mg/kg/injection, schedule: Q01DX001 (ip), vehicle: carboxymethylcellulose (CMC) 98 % of control | dose: 200.0 mg/kg/injection, schedule: Q01DX001 (ip), vehicle: carboxymethylcellulose (CMC) 119 % of control | dose: 400.0 mg/kg/injection, schedule: Q01DX001 (ip), vehicle: carboxymethylcellulose (CMC) 98 % of control

CC(=O)OCC(=O)c1cc(C)n(C)c(=O)c1CN1C(=O)c2ccccc2C1=O
inactive: [4] 107 % of control | dose: 100.0 mg/kg/injection, schedule: Q04DX003 (ip), vehicle: saline with Tween-80 97 % of control | [5] 102 % of control | dose: 200.0 mg/kg/injection, schedule: Q04DX003 (ip), vehicle: saline with Tween-80 96 % of control | [6] 108 % of control | dose: 400.0 mg/kg/injection, schedule: Q04DX003 (ip), vehicle: saline with Tween-80 96 % of control

CN(C)C1=NC(=O)C(c2ccccc2)O1 (centres undefined)
inactive: dose: 25.0 mg/kg/injection, schedule: Q01DX009 (ip), vehicle: saline 104 % of control | dose: 50.0 mg/kg/injection, schedule: Q01DX009 (ip), vehicle: saline 111 % of control | [1] 101 % of control | dose: 100.0 mg/kg/injection, schedule: Q01DX009 (ip), vehicle: saline 111 % of control | dose: 200.0 mg/kg/injection, schedule: Q01DX009 (ip), vehicle: saline 101 % of control | dose: 200.0 mg/kg/injection, schedule: Q04DX003 (ip), vehicle: saline 100 % of control | dose: 400.0 mg/kg/injection, schedule: Q04DX003 (ip), vehicle: saline 100 % of control

O=[N+]([O-])c1cc(Cl)c(O)c(Cl)c1Cl
inactive: dose: 25.0 mg/kg/injection, schedule: Q01DX009 (ip), vehicle: acetone 97 % of control | dose: 50.0 mg/kg/injection, schedule: Q01DX009 (ip), vehicle: acetone 97 % of control | dose: 50.0 mg/kg/injection, schedule: Q04DX003 (ip), vehicle: acetone 95 % of control | dose: 100.0 mg/kg/injection, schedule: Q01DX001 (ip), vehicle: acetone 102 % of control | dose: 100.0 mg/kg/injection, schedule: Q01DX009 (ip), vehicle: acetone 88 % of control | dose: 100.0 mg/kg/injection, schedule: Q04DX003 (ip), vehicle: acetone 92 % of control | dose: 150.0 mg/kg/injection, schedule: Q01DX009 (ip), vehicle: saline 90 % of control | dose: 200.0 mg/kg/injection, schedule: Q01DX001 (ip), vehicle: acetone 100 % of control | dose: 225.0 mg/kg/injection, schedule: Q01DX009 (ip), vehicle: saline 87 % of control

COc1nc(N)nc2c1ncn2C1OC(CO)C(O)C1O (centres undefined)
inactive: [7] 102 % of control | [8] 93 % of control

O=C(Nc1cc([N+](=O)[O-])cc([N+](=O)[O-])c1O)C(F)(F)F
inactive: dose: 25.0 mg/kg/injection, schedule: Q01DX001 (ip), vehicle: Klucel (hydroxypropylcellulose) (HPC) 102 % of control | dose: 50.0 mg/kg/injection, schedule: Q01DX001 (ip), vehicle: Klucel (hydroxypropylcellulose) (HPC) 96 % of control | [2] 100 % of control and 120 % of control | [3] 98 % of control
